Reference: patent US20050118263A1, “Composition” (priority 2002, published 2005)

What was measured:
[1] = test system: patients with type 2 diabetes; assay: Randomised double-blind placebo controlled crossover trial in type 2 diabetes patients: cognitive tests at end of each phase (Example 3); type: in vivo, human; details: 6 weeks per phase
Experimental: 12 patients with type 2 diabetes by World Health Organisation criteria (age range 52-70 y, mean 60.1 y), including 3 women and 9 men, participated in a randomised double-blind placebo controlled crossover trial comparing carbenoxolone (100 mg 8 hourly for 6 weeks by mouth) plus amiloride (10 mg daily by mouth) with placebo (8 hourly for 6 weeks by mouth) plus amiloride (10 mg daily by mouth). The two phases are separated by a washout period of 8 weeks. The order of carbenoxolone or placebo is randomised and the subjects and the experimenters are blind to the treatment given. At the end of each phase, tests of verbal fluency, verbal memory, visuospatial memory, attention and processing speed and intelligence are performed.

healthy, unmedicated men = assay: Randomised, double-blind, crossover trial in healthy men: cognitive tests at end of each phase (Example 2); type: in vivo, human; details: 4 weeks per phase, carbenoxolone 100 mg 8 hourly + amiloride 10 mg daily by mouth vs placebo + amiloride, p<0.01
Experimental: 10 healthy, unmedicated men (65.5 plus/minus SD 5.5y) participated in a randomised, double-blind, crossover trial comparing carbenoxolone (100 mg 8 hourly for 4 weeks by mouth) plus amiloride (10 mg daily by mouth) with placebo (8 hourly for 4 weeks by mouth) plus amiloride (10 mg daily by mouth). Each study phase lasts 4 weeks. The two phases are separated by an 8 week washout period. The order of carbenoxolone or placebo is randomised and the subjects and the experimenters are blind to the treatment given. Participants are asked to look out for potential adverse effects of carbenoxolone, including weight gain and pedal edema, and blood pressure and plasma electrolytes are monitored weekly. Compliance is assessed by pill counting and detecting carbenoxolone in plasma by high performance liquid chromatography. At the end of each phase, tests of verbal fluency, verbal memory, visuospatial memory, attention and processing speed, and intelligence are performed. Data are mean+/−SEM for the % change in cognitive score, calculated for each individual as (score with carbenoxolone+amiloride)−(score with placebo+amiloride)/(score with placebo+amiloride)×100. P values refer to comparison of absolute data in the two groups. Statistical analysis is conducted using Mann-Witney U tests and Friedman's non-parametric ANOVAs.

[2] = known from Yau et al. (1999) Neurosci Lett 277: 45-48; cited from earlier work
[3] = test system: patients with type 2 diabetes; assay: Withdrawals from treatment in patients with type 2 diabetes; type: in vivo, human; details: carbenoxolone alone: of 8 patients, including one hospital admission with hypokalaemia

For NC(N)=NC(=O)c1nc(Cl)c(N)nc1N [Placebo with Amiloride, 3,5-diamino-6-chloro-N-(diaminomethylene) pyrazinecarboxamide], the “Processing speed: DSST, Mean (SD)” value ([1]; Digit Symbol Substitution test, p 0.78) was 50.3 (6.7), the “Reasoning: RSPM, Mean (SD)” value ([1]; Ravens Standard Progressive Matrices, p 0.17) was 44.0 (6.6) and the “Verbal memory: Rey AVLT, Mean (SD)” value ([1]; Rey Auditory Verbal Learning Test, p <0.01) was 56.1 (8.7). The “Verbal memory: WM Logical Memory, Mean (SD)” value ([1]; Wechsler Memory Scale-revised, p 0.78) was 49.7 (13.8), the “Visual memory: WM Visual reproduction, Mean (SD)” value ([1]; Wechsler Memory Scale-revised, p 0.94) was 59.9 (13.3) and the “Executive function: Verbal Fluency, Mean (SD)” value ([1]; p 0.48 between phases) was 42.2 (8.4). For the same compound, the “verbal fluency (Controlled Word Association test), mean/SD” value (healthy, unmedicated men) was 41/12.

In the case of CC(=O)S[C@@H]1CC2=CC(=O)CC[C@]2(C)[C@H]2CC[C@@]3(C)[C@@H](CC[C@@]34CCC(=O)O4)[C@H]12 [Spironolactone, 17-hydroxy-7-alpha-mercapto-3-oxo-17-alpha-pregn-4-ene-21-carboxylic acid gamma-lactone acetate], the “unwanted effects on cognitive function” value [2] is listed as “reduce cognitive function”.

For CC1(C)[C@@H](OC(=O)CCC(=O)O)CC[C@]2(C)[C@H]3C(=O)C=C4[C@@H]5C[C@@](C)(C(=O)O)CC[C@]5(C)CC[C@@]4(C)[C@]3(C)CC[C@@H]12 [carbenoxolone], the “withdrawals due to sodium retention” value [3] was 3.
